What was measured:
TNF-RE tkLuc = TNF-RE tkLuc reporter, effect of antiestrogens (ER subtype not given); assay type: cell-based, human; conditions: for effect on the repression induced by E2: TNF-RE tkLuc, with E2; for activation of TNF-RE tkLuc: antiestrogens, in contrast to E2
Text: Plasmid Construction. […] ERβmutants were created with QuikChange site-directed mutagenesis kits (Stratagene), by using oligonucleotides containing the mutation. The mutants were sequenced with Sequenase kits (Amersham Pharmacia) to verify the presence of the mutation.

human ERβ = molecular target: T1, human ERβ (Homo sapiens, UniProt Q92731); experiment: ERE-tk-Luc luciferase assay in U2OS osteosarcoma cells, ERβ; assay type: cell-based; conditions: co-administration with the extract (Herb 16)
T1 construct: expressed in transfected cells; host or cells: U2OS (human osteosarcoma)
T1 sequence (Q92731 whole entry): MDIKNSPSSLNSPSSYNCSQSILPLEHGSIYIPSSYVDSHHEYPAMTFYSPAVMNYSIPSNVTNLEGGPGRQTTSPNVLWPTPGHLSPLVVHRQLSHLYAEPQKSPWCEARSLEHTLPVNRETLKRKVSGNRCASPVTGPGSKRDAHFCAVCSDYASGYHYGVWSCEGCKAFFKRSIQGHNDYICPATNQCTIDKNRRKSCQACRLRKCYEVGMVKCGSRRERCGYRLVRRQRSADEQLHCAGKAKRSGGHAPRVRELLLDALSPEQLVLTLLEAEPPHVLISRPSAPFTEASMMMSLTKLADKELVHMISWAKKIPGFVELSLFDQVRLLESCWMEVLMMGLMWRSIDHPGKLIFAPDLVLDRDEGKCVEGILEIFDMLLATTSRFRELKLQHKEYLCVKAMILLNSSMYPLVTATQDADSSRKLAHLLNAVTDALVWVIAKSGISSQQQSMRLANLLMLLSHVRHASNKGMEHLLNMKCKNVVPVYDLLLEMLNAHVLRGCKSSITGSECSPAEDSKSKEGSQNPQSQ
Method: Preparation of Anemarrhena Asphodeloides Bge. from the Liliaceae Family: Samples of Anemarrhena asphodeloides Bge. from the Liliaceae Family were ground to fine powder using a commercial electric herb grinder; 5 grams were weighed and extracted in a) 50 ml of 100% EtOH or b) 50 ml of distilled H2O was simmered at 75° Celsius for 45 minutes. The extracts (a and b) were than decanted and only the soluble material was used.

[1] = five years of therapy; cited from earlier work
[2] = women at high risk for breast cancer; cited from earlier work

SMILES	effect on the repression induced by E2 (TNF-RE tkLuc)	activation of TNF-RE tkLuc (TNF-RE tkLuc)	effect on extract-stimulated ERE-tk-Luc expression (human ERβ; FIG. 5)	effect on extract-stimulated ERE-tk-Luc expression (human ERβ; FIG. 5, listed as ICI)	effect on extract-stimulated ERE-tk-Luc expression (human ERβ; FIG. 5, listed as Raloxifene)	reduction of mortality from breast cancer [1]	reduction of the risk of recurrences [1]	reduction of the risk of primary invasive breast cancer [2]
C[C@]12CC[C@@H]3c4ccc(O)cc4C[C@@H](CCCCCCCCC[S+]([O-])CCCC(F)(F)C(F)(F)F)[C@H]3[C@@H]1CC[C@@H]2O (stereo partly shown) [ICI 182780]	abolished the repression induced by E2	2 fold	counteracted	attenuated				
O=C(c1ccc(OCCN2CCCCC2)cc1)c1c(-c2ccc(O)cc2)sc2cc(O)ccc12 [raloxifene]	abolished the repression induced by E2	2 fold	counteracted		attenuated			
CC/C(=C(\c1ccccc1)c1ccc(OCCN(C)C)cc1)c1ccccc1 [tamoxifen]	abolished the repression induced by E2	2 fold				22%	42%	49%
